# Test results published in paper PMC7472354, “Enhanced Antimicrobial Activity of N-Terminal Derivatives of a Novel Brevinin-1 Peptide from The Skin Secretion of Odorrana schmackeri” (Toxins, 2020).
# Like-named read-outs stand apart in the source and are kept apart here. Where a SMILES comes first, the peptide text is derived from it. Bridges are numbered along the chain shown (N, C = ends).
# Key:
# E. faecalis = type: cell-based, Enterococcus faecalis; conditions: 24 h
# Procedure: (§1) The minimal inhibitory concentrations (MICs) and minimum bactericidal concentrations (MBCs) were evaluated to determine the antimicrobial activity of synthetic peptides. The microorganisms employed in the study are two kinds of Gram-negative bacteria, Escherichia coli (NCTC 10418) and Pseudomonas aeruginosa (ATCC 27853), three kinds of Gram-positive bacteria, Staphylococcus aureus (NCTC 10788), Methicillin-resistant Staphylococcus aureus (MRSA, ATCC 12493) and Enterococcus faecalis (NCTC 12697) and a yeast, Candida albicans (NCPF 1467), as indicated previously. For antimicrobial assays, 5 × 10^5 CFU/mL of bacterial suspensions were incubated with the concentrations of the peptides (ranging from 1 µM to 512 µM) for 24 h at 37 °C. The sterilised broth medium was used as the positive control and the microorganism cultured in the medium only was treated as the negative control. […] The MBC results were defined as the lowest bactericidal concentrations of peptide. The antimicrobial activity of peptides was tested by monitoring the absorbance at 550 nm using an ELISA plate reader (Biolise BioTek EL808, Winooski, VT, USA).
# (§2) The activity of peptides in the different environmental conditions including different concentrations of NaCl (50, 100 and 150 mM) and MgCl2 (0.5, 1 and 2 mM), pH (6, 7 and 8), temperature (50 °C, 75 °C and 100 °C) and 10% fetal bovine serum (FBS) solution, was evaluated using the broth microdilution assay as described in the antimicrobial activity assay. For the stability test of peptides in the presence of salt, pH and serum, these conditions were adjusted in the fresh medium that was further used to dilute the bacteria suspension. The peptides were also dissolved in such broth and mixed with the bacteria suspension in the 96 well plate. For the thermal stability test, the peptides were dissolved in the water and incubated at different temperature for 15 min before dosing in the plate. The sterilised broth with corresponding conditions was used as the positive controls, and the bacteria suspension without any treatment was used as the negative controls.
# [1] = system: E. coli (NCTC 10418) biofilm; type: cell-based, Escherichia coli
# Procedure: (§3) The anti-biofilm effects of all synthetic peptides were evaluated, which was described in our previous study. The organisms, including S. aureus (NCTC 10788), E. coli (NCTC 10418), MRSA (ATCC 12493), E. faecalis (NCTC 12697) and P. aeruginosa (ATCC 27853), were investigated in this study. Gram-positive bacteria were cultured in the TSB broth and Gram-negative bacteria were cultured in the LB broth. The anti-biofilm effects were determined based on the MBIC and MBEC of all the peptides. For the determination of MBIC, 5 × 10^5 CFU/mL bacterial cultures were incubated with the peptides concentrations (ranging from 1 µM to 512 µM) for 24 h. The sterilised medium and bacterial suspension without any treatment were used as the negative controls and positive controls, respectively. After incubation, wells were rinsed, fixed, stained, washed and dissolved with phosphate buffer saline (PBS), methanol (90%, v/v), crystal violet (0.1%, w/v), sterile deionised water and acetic acid (30%, v/v), respectively. The absorbance of dissolved stain was measured at a 595 nm using a Synergy HT plate reader (Biotech, Minneapolis, MN, USA).
# (§4) For the MBEC assay, the peptide concentrations were prepared as above. The bacteria were cultured in the 96 well plate for 24–48 h, which allowed the formation of mature biofilm in the plate. Then, the bacterial culture was removed from the plate. The biofilm was further washed to remove the planktonic bacteria using PBS. Then, the fresh broth that contained different peptide concentrations was added in the plate for incubation of 24 h at 37 °C. After incubation, the plate was stained by crystal violet as mentioned above. The definition of MBIC can be given when compared to the negative control group (≥90%, MBIC90; ≥50%, MBIC50). The definition of the MBEC can be given when compared to the negative control group (≥90%, MBEC90; ≥50%, MBEC50).
# S. aureus = type: cell-based, Staphylococcus aureus; conditions: 24 h
# Procedure: as §1, §2
# MRSA = type: cell-based, Staphylococcus aureus; conditions: 24 h
# Procedure: as §1, §2
# E. coli = type: cell-based, Escherichia coli; conditions: 24 h
# Procedure: as §1, §2
# P. aeruginosa = type: cell-based, Pseudomonas aeruginosa; conditions: 24 h
# Procedure: as §1, §2
# [2] = system: MRSA (ATCC 12493) biofilm; type: cell-based, Staphylococcus aureus
# Procedure: as §3, §4
# [3] = system: S. aureus (NCTC 10788) biofilm; type: cell-based, Staphylococcus aureus
# Procedure: as §3, §4
# [4] = system: Methicillin-resistant Staphylococcus aureus (MRSA, ATCC 12493); type: cell-based
# Procedure: as §1, with “For antimicrobial assays, 5 × 10^5 CFU/mL of bacterial suspensions were incubated with the concentrations of the peptides (ranging from 1 µM to 512 µM) for 24 h at 37 °C.” left out
# [5] = system: Candida albicans (NCPF 1467); type: cell-based
# Procedure: as §1, with “For antimicrobial assays, 5 × 10^5 CFU/mL of bacterial suspensions were incubated with the concentrations of the peptides (ranging from 1 µM to 512 µM) for 24 h at 37 °C.” left out
# [6] = system: Enterococcus faecalis (NCTC 12697); type: cell-based
# Procedure: as §1, with “For antimicrobial assays, 5 × 10^5 CFU/mL of bacterial suspensions were incubated with the concentrations of the peptides (ranging from 1 µM to 512 µM) for 24 h at 37 °C.” left out
# [7] = system: Staphylococcus aureus (NCTC 10788); type: cell-based
# Procedure: as §1, with “For antimicrobial assays, 5 × 10^5 CFU/mL of bacterial suspensions were incubated with the concentrations of the peptides (ranging from 1 µM to 512 µM) for 24 h at 37 °C.” left out
# [8] = system: Pseudomonas aeruginosa (ATCC 27853); type: cell-based
# Procedure: as §1, with “For antimicrobial assays, 5 × 10^5 CFU/mL of bacterial suspensions were incubated with the concentrations of the peptides (ranging from 1 µM to 512 µM) for 24 h at 37 °C.” left out
# [9] = system: Escherichia coli (NCTC 10418); type: cell-based
# Procedure: as §1, with “For antimicrobial assays, 5 × 10^5 CFU/mL of bacterial suspensions were incubated with the concentrations of the peptides (ranging from 1 µM to 512 µM) for 24 h at 37 °C.” left out
# [10] = system: P. aeruginosa (ATCC 27853) biofilm; type: cell-based, Pseudomonas aeruginosa
# Procedure: as §3, §4
# [11] = system: E. faecalis (NCTC 12697) biofilm; type: cell-based, Enterococcus faecalis
# Procedure: as §3, §4
# C. albicans = type: cell-based, Candida albicans; conditions: 24 h
# Procedure: as §1, §2
# [12] = system: Galleria mellonella larvae; test: Toxicity to uninfected Galleria mellonella larvae; type: in vivo; conditions: uninfected G. mellonella larvae injected with drug; n = 30 per group; vancomycin 20 mg/kg
# Procedure: The in vivo study of antimicrobial activity of the peptides was evaluated using the larvae of Galleria mellonella, which was described in the previous study with minor modifications. The larvae of Galleria mellonella (250 ± 25 mg; Livefood UK Ltd., Rooks Bridge, UK) were selected. The MRSA culture was prepared the same way as the antimicrobial activity assay. Then, MRSA cells were collected and washed, and further diluted to 10^8 CFU/mL in the saline. Ten µL of MRSA suspension was injected to the larvae and placed in a petri dish. After 2 h, the MRSA infected larvae were administrated with 10 µL of peptides (25 mg/kg, 50 mg/kg) by injection. Saline and vancomycin (20 mg/kg) (Sigma-Aldrich, UK) were used as the negative control and positive control, respectively. Each sample group contained 10 larvae, and the experiment was repeated three times (30 larvae for each group in total). The survival curves were achieved using Prism (Version 6.0; GraphPad Software Inc., San Diego, CA, USA) and the log-rank test was employed to analyze the significance between the different treatments and the controls. * (p < 0.05), ** (p < 0.01) and *** (p < 0.001) represent statistical significance.
# Figure A9 Larvae without any MRSA infection were injected with peptides and vancomycin respectively to access the cytotoxicity of the drugs to larvae bodies. […] Effect of treatment of G. mellonella larvae (n = 30 for each group) without any infection and only treated with 5 µL vancomycin (20 mg/kg), OSd, OSe and OSf.
smiles,measurement,setting,value
CC[C@H](C)[C@H](NC(=O)CNC(=O)[C@@H]1CCCN1C(=O)[C@H](CC(C)C)NC(=O)[C@@H](N)Cc1ccccc1)C(=O)N[C@@H](CC(C)C)C(=O)N[C@@H](CCCCN)C(=O)N[C@H](C(=O)N[C@@H](C)C(=O)N[C@@H](C)C(=O)N[C@@H](CC(N)=O)C(=O)N[C@H](C(=O)N[C@H](C(=O)N1CCC[C@H]1C(=O)NCC(=O)N[C@H](C(=O)N[C@H](C(=O)N[C@H]1CSSC[C@@H](C(=O)O)NC(=O)[C@H](CCCCN)NC(=O)[C@H](CCCCN)NC(=O)[C@H]([C@@H](C)O)NC(=O)[C@H]([C@@H](C)CC)NC(=O)[C@H](C)NC1=O)[C@@H](C)CC)C(C)C)C(C)C)C(C)C)C(C)C [Brevinin-1OS] (H-FLPGILKVAANVVPGVICAITKKC-OH; disulfide 18-24),MIC,E. faecalis; pH 6,128 µM
same,MIC,E. faecalis; pH 7,32 µM
same,MIC,E. faecalis; pH 8,16 µM
same,MBEC50,[1],> 512 µM
same,MBEC90,[1],> 512 µM
same,MBIC50,"[1]; NCTC 10418, 24 h",128 µM
same,MBIC90,"[1]; NCTC 10418, 24 h",128 µM
same,MIC,S. aureus; pH 6,8 µM
same,MIC,S. aureus; pH 7,4 µM
same,MIC,S. aureus; pH 8,4 µM
same,MIC,MRSA; pH 6,64 µM
same,MIC,MRSA; pH 7,8 µM
same,MIC,MRSA; pH 8,4 µM
same,MIC,E. coli; pH 6,32 µM
same,MIC,E. coli; pH 7,32 µM
same,MIC,E. coli; pH 8,128 µM
same,MIC,P. aeruginosa; pH 6,128 µM
same,MIC,P. aeruginosa; pH 7,256 µM
same,MIC,P. aeruginosa; pH 8,256 µM
same,MBEC50,[2],64 µM
same,MBEC90,[2],256 µM
same,MBIC50,"[2]; ATCC 12493, 24 h",8 µM
same,MBIC90,"[2]; ATCC 12493, 24 h",32 µM
same,MBEC50,[3],32 µM
same,MBEC90,[3],64 µM
same,MBIC50,"[3]; NCTC 10788, 24 h",4 µM
same,MBIC90,"[3]; NCTC 10788, 24 h",4 µM
same,MBC,"[4]; ATCC 12493, 18 h",32 µM
same,MIC,"[4]; ATCC 12493, 24 h",32 µM
same,MBC,"[5]; NCPF 1467, 18 h",64 µM
same,MIC,"[5]; NCPF 1467, 24 h",8 µM
same,MBC,"[6]; NCTC 12697, 18 h",16 µM
same,MIC,"[6]; NCTC 12697, 24 h",8 µM
same,MBC,"[7]; NCTC 10788, 18 h",16 µM
same,MIC,"[7]; NCTC 10788, 24 h",4 µM
same,MBC,"[8]; ATCC 27853, 18 h",> 512 µM
same,MIC,"[8]; ATCC 27853, 24 h",256 µM
same,MBC,"[9]; NCTC 10418, 18 h",> 512 µM
same,MIC,"[9]; NCTC 10418, 24 h",128 µM
same,MBEC50,[10],512 µM
same,MBEC90,[10],512 µM
same,MBIC50,"[10]; ATCC 27853, 24 h",256 µM
same,MBIC90,"[10]; ATCC 27853, 24 h",256 µM
same,MBEC50,[11],256 µM
same,MBEC90,[11],> 512 µM
same,MBIC50,"[11]; NCTC 12697, 24 h",32 µM
same,MBIC90,"[11]; NCTC 12697, 24 h",64 µM
same,MIC,C. albicans; pH 6,64 µM
same,MIC,C. albicans; pH 7,16 µM
same,MIC,C. albicans; pH 8,16 µM
"CN[C@H](CC(C)C)C(=O)N[C@H]1C(=O)N[C@@H](CC(N)=O)C(=O)N[C@H]2C(=O)N[C@H]3C(=O)N[C@H](C(=O)N[C@H](C(=O)O)c4cc(O)cc(O)c4-c4cc3ccc4O)[C@H](O)c3ccc(c(Cl)c3)Oc3cc2cc(c3O[C@@H]2O[C@H](CO)[C@@H](O)[C@H](O)[C@H]2O[C@H]2C[C@](C)(N)[C@H](O)[C@H](C)O2)Oc2ccc(cc2Cl)[C@H]1O [vancomycin, reference compound]",toxicity to larvae without MRSA infection,[12],No noticeable cytotoxicity
